Source: the supplement of paper PMC10307832

What was measured:
Experiment in all cases: relative viability (nuclei count vs DMSO), 5 days (fraction); higher = more cells survive
[1] = compound: CC1=NN=C(O1)C2=NN=C(C=C2)N3CCC(CC3)OC4=C(C=CC(=C4)F)Cl + O=C(CCCCCCC(=O)Nc1ccccc1)NO [Vorinostat] (partner 1 µM)
How it was run: (§1)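 Lung cancer cell lines were seeded in 1536-well plates and dosed by pin tool the next day, with either a single drug or a fixed anchor-drug dose combined with five library-drug doses (not always all listed) spaced in √10 steps. Five days later, one step fixed the cells and stained their nuclei (final 0.05% Triton X-100, 1% formaldehyde, 1 ug/ml Hoechst), and nuclei were counted on 4× images. Relative viability is the nuclei count in treated wells divided by the count in vehicle wells, and each value is the median of duplicate plates.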

Tosedostat + Decitabine = compound: CC(C)C[C@@H](C(=O)N[C@H](C(=O)OC1CCCC1)c1ccccc1)[C@H](O)C(=O)NO [Tosedostat] + Nc1ncn([C@H]2C[C@H](O)[C@@H](CO)O2)c(=O)n1 [Decitabine] (partner 2 µM)
How it was run: as §1

[2] = compound: CC1=NN=C(O1)C2=NN=C(C=C2)N3CCC(CC3)OC4=C(C=CC(=C4)F)Cl + Cc1cc(Nc2cc(N3CCN(C)CC3)nc(Sc3ccc(NC(=O)C4CC4)cc3)n2)n[nH]1 [Tozasertib] (partner 0.1 µM)
How it was run: as §1

Tosedostat + Crizotinib = compound: CC(C)C[C@@H](C(=O)N[C@H](C(=O)OC1CCCC1)c1ccccc1)[C@H](O)C(=O)NO [Tosedostat] + C[C@@H](Oc1cc(-c2cnn(C3CCNCC3)c2)cnc1N)c1c(Cl)ccc(F)c1Cl [Crizotinib] (partner 1 µM)
How it was run: as §1

Row | Cell Line | relative viability ([1]; first compound 0.253 µM) | relative viability ([1]; first compound 0.8 µM) | relative viability ([1]; first compound 2.53 µM) | relative viability ([1]; first compound 8 µM) | relative viability (Tosedostat + Decitabine; first compound 0.02 µM) | relative viability (Tosedostat + Decitabine; first compound 0.06325 µM) | relative viability (Tosedostat + Decitabine; first compound 0.2 µM) | relative viability (Tosedostat + Decitabine; first compound 0.6325 µM) | relative viability (Tosedostat + Decitabine; first compound 2 µM) | relative viability ([2]; first compound 0.253 µM) | relative viability ([2]; first compound 0.8 µM) | relative viability ([2]; first compound 2.53 µM) | relative viability ([2]; first compound 8 µM) | relative viability (Tosedostat + Crizotinib; first compound 0.02 µM) | relative viability (Tosedostat + Crizotinib; first compound 0.06325 µM) | relative viability (Tosedostat + Crizotinib; first compound 0.2 µM) | relative viability (Tosedostat + Crizotinib; first compound 0.6325 µM) | relative viability (Tosedostat + Crizotinib; first compound 2 µM)
1 | COR-L 105 | 0.797 | 0.919 | 0.794 | 0.8 | 0.747 | 0.622 | 0.681 | 0.537 | 0.596 | 0.328 | 0.375 | 0.365 | 0.427 | 0.865 | 0.751 | 0.827 | 0.493 | 0.548
2 | NCI-H2085 | 0.649 | 0.557 | 0.687 | 0.58 |  | 0.548 | 0.495 | 0.503 | 0.43 | 0.454 | 0.614 | 0.538 | 0.515 | 0.842 | 0.98 | 0.91 | 0.896 | 0.814
3 | NCI-H2087 | 0.242 | 0.376 | 0.408 | 0.291 | 0.37 | 0.23 | 0.24 | 0.224 | 0.225 | 0.194 | 0.157 | 0.156 | 0.114 | 0.832 | 0.823 | 0.643 | 0.731 | 0.716
4 | NCI-H1650 | 0.323 | 0.289 | 0.37 | 0.333 | 0.43 | 0.413 | 0.433 | 0.318 | 0.237 |  | 0.357 | 0.361 | 0.235 | 0.988 | 0.937 | 1.07 | 0.86 | 1.01
5 | NCI-H322M | 0.812 | 0.87 | 0.948 | 0.799 | 0.69 | 0.652 | 0.587 | 0.636 | 0.621 | 0.488 | 0.482 | 0.422 | 0.436 | 0.877 | 0.957 | 0.841 | 0.868 | 0.71
6 | HCC-366 | 0.0995 | 0.112 | 0.127 | 0.0801 | 0.332 | 0.369 | 0.397 | 0.311 | 0.359 | 0.076 | 0.0654 | 0.0544 | 0.0419 | 0.681 | 0.532 | 0.432 | 0.465 | 0.325
7 | EMC-BAC-2 | 0.512 | 0.426 | 0.446 | 0.239 | 1.04 | 0.964 | 0.971 | 0.877 | 0.865 | 0.314 | 0.274 | 0.283 | 0.284 | 0.847 | 0.724 | 0.742 | 0.703 | 0.536
8 | NCI-H460 | 0.16 | 0.215 | 0.208 | 0.19 | 0.514 | 0.466 | 0.457 | 0.468 | 0.528 | 0.0757 | 0.107 | 0.144 | 0.129 | 0.956 | 0.787 | 0.905 | 0.708 | 0.932
9 | NCI-H358 | 0.405 | 0.341 | 0.399 | 0.35 | 0.238 | 0.188 | 0.143 | 0.166 | 0.157 | 0.107 | 0.0958 | 0.116 | 0.0977 | 0.725 | 0.458 | 0.355 | 0.198 | 0.196
10 | NCI-H1944 | 0.349 | 0.329 | 0.427 | 0.393 | 0.456 | 0.431 | 0.458 | 0.416 | 0.39 | 0.22 | 0.216 | 0.213 | 0.229 | 1.11 | 1.01 | 1.04 | 1.08 | 0.942
11 | EPLC-272H | 0.352 | 0.529 | 0.313 | 0.387 | 0.364 | 0.37 | 0.363 | 0.328 | 0.254 | 0.36 | 0.228 | 0.184 | 0.158 | 0.915 | 0.877 | 0.635 | 0.613 | 0.25
12 | NCI-H2023 | 0.357 | 0.268 | 0.309 | 0.322 | 0.23 | 0.202 | 0.223 | 0.167 | 0.183 | 0.301 | 0.216 | 0.205 | 0.147 | 0.689 | 0.609 | 0.747 | 0.696 | 0.637
13 | NCI-H838 | 0.583 | 0.599 | 0.607 | 0.623 | 0.483 | 0.449 | 0.431 | 0.421 | 0.392 | 0.244 | 0.248 | 0.247 | 0.245 | 0.969 | 0.92 | 0.826 | 0.818 | 0.948
14 | NCI-H647 | 0.204 | 0.136 | 0.0766 | 0.0534 | 0.332 | 0.367 | 0.286 | 0.404 | 0.313 | 0.166 | 0.105 | 0.126 | 0.0876 | 1.25 | 1.04 | 0.831 | 0.957 | 0.869
15 | NCI-H1437 | 0.492 | 0.491 | 0.523 | 0.376 | 0.537 | 0.569 | 0.58 | 0.566 | 0.564 | 0.256 | 0.204 | 0.228 | 0.175 | 0.941 | 0.988 | 1.03 | 0.914 | 0.895
16 | NCI-H3122 | 0.484 | 0.484 | 0.443 | 0.345 | 0.497 | 0.524 | 0.447 | 0.411 | 0.418 | 0.151 | 0.137 | 0.144 | 0.155 | 0.292 | 0.274 | 0.277 | 0.254 | 0.234
17 | PC-14 | 0.695 | 0.543 | 0.714 | 0.567 | 0.218 | 0.177 | 0.146 | 0.0843 | 0.0753 | 0.523 |  | 0.433 | 0.557 | 0.843 | 0.805 | 0.893 | 0.842 | 0.92
18 | SK-MES-1 | 0.781 | 0.765 | 0.766 | 0.702 | 0.356 | 0.372 | 0.325 | 0.273 | 0.346 | 0.633 | 0.641 | 0.551 | 0.521 | 1.06 | 0.988 | 0.983 | 0.909 | 0.856
